Test results reported in the supplement of paper PMC10307832.

Assays:
Assay in all cases: relative viability (nuclei count vs DMSO), 5 days (fraction); higher = more cells survive
[1] = compound: CCN(CCO)CCCC(C)Nc1ccnc2cc(Cl)ccc12 [Hydroxychloroquine] + CC(C)C[C@H](NC(=O)[C@H](Cc1ccccc1)NC(=O)c1cnccn1)B(O)O [Bortezomib] (partner 0.002 µM)
In short: (§1)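 For relative viability, nuclei counts in treated wells were divided by those in vehicle wells. Lung cancer cell lines had been pin-tool dosed in 1536-well plates the day after seeding and cultured for 5 days, then fixed and stained in one step (final 0.05% Triton X-100, 1% formaldehyde, 1 ug/ml Hoechst) and imaged at 4×. Doses were one drug alone or a fixed anchor-drug dose plus five library-drug doses (not always all listed) in √10 steps, and values are duplicate-plate medians.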

[2] = compound: CCN(CCO)CCCC(C)Nc1ccnc2cc(Cl)ccc12 [Hydroxychloroquine] + CS(=O)(=O)CCNCc1ccc(-c2ccc3ncnc(Nc4ccc(OCc5cccc(F)c5)c(Cl)c4)c3c2)o1 [Lapatinib] (partner 2 µM)
In short: as §1

[3] = compound: CCN(CCO)CCCC(C)Nc1ccnc2cc(Cl)ccc12 [Hydroxychloroquine] + NC(=O)Nc1cc(-c2cccc(F)c2)sc1C(=O)N[C@H]1CCCNC1 [AZD7762] (partner 0.2 µM)
In short: as §1

[4] = compound: CCN(CCO)CCCC(C)Nc1ccnc2cc(Cl)ccc12 [Hydroxychloroquine] + Nc1ncn([C@H]2C[C@H](O)[C@@H](CO)O2)c(=O)n1 [Decitabine] (partner 2 µM)
In short: as §1

| Cell Line | relative viability ([1]; first compound 0.5 µM) | relative viability ([1]; first compound 1.581 µM) | relative viability ([1]; first compound 5 µM) | relative viability ([1]; first compound 15.81 µM) | relative viability ([1]; first compound 50 µM) | relative viability ([2]; first compound 0.5 µM) | relative viability ([2]; first compound 1.581 µM) | relative viability ([2]; first compound 5 µM) | relative viability ([2]; first compound 15.81 µM) | relative viability ([2]; first compound 50 µM) | relative viability ([3]; first compound 0.5 µM) | relative viability ([3]; first compound 1.581 µM) | relative viability ([3]; first compound 5 µM) | relative viability ([3]; first compound 15.81 µM) | relative viability ([3]; first compound 50 µM) | relative viability ([4]; first compound 0.5 µM) | relative viability ([4]; first compound 1.581 µM) | relative viability ([4]; first compound 5 µM) | relative viability ([4]; first compound 15.81 µM) | relative viability ([4]; first compound 50 µM) |
| --- | --- | --- | --- | --- | --- | --- | --- | --- | --- | --- | --- | --- | --- | --- | --- | --- | --- | --- | --- | --- |
| HCC-366 | 1.1 | 1.15 | 1.04 | 1.06 | 1.16 | 0.968 | 1.06 | 1.02 | 1.15 | 1.19 | 0.228 | 0.381 | 0.289 | 0.235 | 0.384 | 0.314 | 0.348 | 0.315 | 0.316 | 0.34 |
| HCC-827 | 1.03 | 1.04 | 1.07 | 1.16 | 1.01 | 0.202 | 0.222 | 0.212 | 0.183 | 0.205 | 0.207 | 0.227 | 0.237 | 0.264 | 0.22 | 0.323 | 0.302 | 0.317 | 0.301 | 0.279 |
| HOP-62 | 0.652 | 0.9 | 0.751 | 0.945 | 1.02 | 1.07 | 0.889 | 1.1 | 0.98 | 1.04 | 0.448 | 0.968 | 0.661 | 0.626 | 0.732 | 0.209 | 0.239 | 0.206 | 0.207 | 0.206 |
| LC-2-ad | 0.974 | 1.03 | 1.04 | 1.01 | 1.12 | 0.977 | 0.958 | 0.979 | 0.999 | 1.02 | 0.898 | 0.822 | 0.842 | 0.832 | 0.85 | 0.732 | 0.777 | 0.776 | 0.744 | 0.854 |
| LCLC-97TM1 | 0.453 | 0.764 | 0.483 | 0.523 | 0.529 | 0.926 | 1.27 | 0.928 | 1.1 | 1.03 | 0.373 | 0.499 | 0.245 | 0.119 | 0.363 | 0.217 | 0.247 | 0.276 | 0.274 | 0.189 |
| LOU-NH91 | 0.467 | 0.507 | 0.492 | 0.475 | 0.539 | 0.759 | 0.591 | 0.776 | 0.754 | 0.738 | 0.762 | 0.646 | 0.776 | 0.744 | 0.828 | 0.761 | 0.732 | 0.833 | 0.83 | 0.824 |
| LU99A | 1.11 | 1.02 | 1.11 | 1.08 | 1.26 | 1.05 | 0.937 | 0.871 | 1.08 | 1.01 | 0.427 | 0.367 | 0.533 | 0.393 | 0.317 | 0.864 | 0.795 | 0.877 | 1.01 | 1.01 |
| LXF-289 | 1.02 | 1.01 | 0.939 | 1.01 | 1 | 0.868 | 0.906 | 0.911 | 0.848 | 0.891 | 1.01 | 1.08 | 1.05 | 1.06 | 1.17 | 0.411 | 0.395 | 0.338 | 0.366 | 0.357 |
